The source of these data is patent US4229375A (priority 1977, dated 1980).

The nature of data set [1]: in vitro. The conditions noted are these: chicken, chick embryo fibroblast.
In data set [2] the test system is Newcastle disease virus. The data set is described as follows: microbe, parasite or virus in culture. Format: cell-based. The conditions noted are these: for MIC: avian paramyxovirus 1, in Gallus gallus, 48 h, read-out: Minimum growth-inhibition concentration.

Each structure is given as a SMILES string. Counter-ions that a name gives are not always drawn.

Take `Cl.NCC12CCCC(C1)C1CCC2C1` (stereo not shown) [1-aminomethyltricyclo[4.3.1.1^2,5]undecane hydrochloride]: the MCC at 48 h in data set [1] is 40 µg/mL. Also, the MIC in data set [2] was 40 µg/mL.

In the case of `Cl.NC12CCCC(C1)C1CCC2C1` (stereo not shown) [1-Aminotricyclo-[4.3.1.1^2,5]undecane hydrochloride, reference compound], in data set [1], the MCC at 48 h came to 87 µg/mL. Also, the MIC in data set [2] stood at 87 µg/mL.

With `NCC12CCCC(C1)C1CCC2C1` (stereo not shown) [compound of the formula (I), 1-aminomethyltricyclo[4.3.1.1^2,5]undecane], the “inhibitory effect on the growth of viruses (in words)” value in data set [2] (compared with 1-aminotricyclo[4.3.1.1^2,5 ]undecane) is on record as “inhibitory effect on the growth of viruses at a lower concentration than the earlier compound”. In addition, the “inhibitory effect on the growth of Newcastle disease virus (in words)” value in data set [2] (in chick embryo fibroblasts) is reported as “excellent inhibitory effect”. Besides, in data set [2] (relative to 1-aminotricyclo[4.3.1.1^2,5 ]undecane, Newcastle disease virus in chick embryo fibroblasts), the “fraction of the concentration of 1-aminotricyclo[4.3.1.1^2,5 ]undecane at which virus multiplication is inhibited” value is recorded as 1/2. In addition, the “fraction of the concentration of adamantylamine hydrochloride at which virus multiplication is inhibited” value in data set [2] (relative to adamantylamine hydrochloride, Newcastle disease virus in chick embryo fibroblasts) is “about 1/6”.

Consider `NC12CC3CC(CC(C3)C1)C2` [Adamantylamine hydrochloride, reference compound], for which, in data set [1], the MCC at 48 h was 250 µg/mL. In data set [2], the MIC stood at 250 µg/mL.
